Measured values: paper PMC12751141, “Disrupting α-Synuclein–ClpP interaction restores mitochondrial function and attenuates neuropathology in Parkinson’s disease models” (Molecular Neurodegeneration, 2025)

Key:
ClpP (HEK293T cells) = test: ClpP protein level, western blot, HEK293T cells; assay type: cell-based; conditions: WT or A53T αSyn overexpression; 30 min pretreatment; n = 4–5 (CS1: n = 4)
αSyn monomer = αSyn monomer ELISA, Tet-inducible αSyn SH-SY5Y cells; assay type: cell-based, human; conditions: vs TAT
Description: After one day incubation with doxycycline (1µM), αSyn tet-on inducible expression SHSY5Y cells were treated with TAT or CS2 peptides at 10 µM for another two days. The level of αSyn monomer released into culture medium was measured using LEGEND MAX human αSyn ELISA kit (448607, Biolegend). The level of extracellular and intracellular αSyn oligomers was measured using human alpha synuclein oligomer ELISA kit (MBS730762, Mybioresource).

SH-SY5Y cells [1] = test: Mitochondrial membrane potential (TMRM) in SH-SY5Y cells; assay type: cell-based; conditions: SH-SY5Y expressing Venus-αSyn, n = 8
Description: Cells cultured on coverslips or 24-well plates were washed with DPBS and then incubated with 0.25 µM Tetramethylrhodamine, methyl ester (TMRM) (Invitrogen, T668), for 20 min at 37 °C. For cells cultured on coverslips, the images were visualized by microscope, and quantification of images was then carried out using NIH Fiji ImageJ software. At least 100 cells per group were counted in the analysis.

SH-SY5Y cells [2] = test: Cellular ATP in SH-SY5Y cells; assay type: cell-based
Description: Cells were seeded in 24-well plates, followed by the indicated treatment. The ATP level in each well was determined using the ATP assay kit according to the manufacturer’s procedures (Cayman Chemical, 700410).

[3] = system: A53T-αSyn PD patient iPSC-derived DA neurons; test: Immunofluorescence / fractionation western blot in A53T-αSyn iPSC-derived (DA) neurons; assay type: cell-based, human; conditions: 1 µM, five days
From the text: PD iPS cells lines (αSyn A53T, NN0004337, donor) and its isogenic corrected control line (NN0004344) were obtained from RUCDR Infinite Biologics. The iPS cells were differentiated into dopaminergic neuron-enriched neuronal culture with the protocol described previously. Briefly, iPS cell colonies were disassociated with accutase (Invitrogen), plated onto 6-well plates pre-coated with 2.5% Matrigel (BD Biosciences) and allowed to reach 80% confluence in mTeSR medium (Stem Cell Technology). For the first 10 days, cells were treated with SB431542 (10 µM; Tocris Bioscience) and Noggin (100 ng/ml) in Neural Media (NM) with FGF2 ([…]) and EGF ([…]). NM media contained: Neurobasal and DMEM/F12 (1:1), B-27 Supplement Minus Vitamin A (50×, Invitrogen), N2 Supplement (100X, Invitrogen), GlutaMAX (Invitrogen, 100×), 100 units/ml penicillin and 100 µg/ml streptomycin (Fisher); for the next 4 days, cells were treated with human recombinant Sonic hedgehog (SHH, 200 ng/ml) in neuronal differentiation medium. Neuronal differentiation medium contained Neurobasal and DMEM/F12 (1:3), B27, N2, GlutaMax and PS. In the following 3 days, cells were switched to BDNF (20 ng/ml), ascorbic acid (200 µM, Sigma-Alderich), SHH (200 ng/ml), and FGF8b (100 ng/ml) in neuronal differentiation medium. Thereafter, cells were treated with BDNF, ascorbic acid, GDNF (10 ng/ml), TGF-b (1 ng/ml), and cAMP ([…], Sigma-Aldrich). All growth factors were purchased from Pepro Tech (Rocky Hill, NJ, USA). After 20 days of induction, neurons were treated daily with TAT or CS2 peptides at 1µM and were fixed for immunostaining at 26 days of induction. The imaging was observed by confocal microscope (Fluoview FV3000, Olympus).
Cells were grown on coverslips, fixed with 4% paraformaldehyde for 20 min at room temperature, permeabilized with 0.1% Triton X-100 in PBS, and blocked with 2% normal goat serum. The cells were incubated with the indicated primary antibodies overnight at 4℃. After washing with PBS, the cells were incubated with Alexa Fluor 488/568 or 405/568 secondary antibody (1:500; Thermo Fisher Scientific) for 2 h at room temperature. The nuclei were counterstained with DAPI (1:10000; Sigma-Aldrich). Images of the staining were acquired using a Fluoview FV3000 confocal microscope (Olympus).
Fig. 6 CS2 treatment is protective in DA neurons derived from PD patient iPSCs. (A) Representative images of MitoTracker staining and ClpP-αSyn PLA in A53T αSyn or isogenic control (ISO) iPSCs-derived neurons (scale bar = 30 μm). (B) Representative images of ClpP-αSyn PLA in A53T αSyn or ISO iPSCs-derived neurons, which were treated with TAT or CS2 peptide (scale bar = 30 μm). […] (C) Representative blots of co-immunoprecipitation assay assessing ClpP-αSyn in A53T αSyn or ISO iPSCs-derived neurons, which were treated with TAT or CS2 peptide. […] (D) Representative images of ClpP staining in […] positive (TH^+) iPSCs-derived DA neurons treated with TAT or CS2 peptide (scale bar = 30 μm). […] (E) Representative images of pS129-αSyn (pS129) staining in TH^+ iPSCs-derived DA neurons treated with TAT or CS2 peptide (scale bar = 30 μm). […] (F) Representative images of PSD95, Synapsin1 (SYN1) and MAP2 staining in iPSCs-derived neurons treated with TAT or CS2 peptide (scale bar = 30 μm).
(C) Detergent soluble and insoluble fractions were extracted from iPSC-derived neurons and subjected for western blot analyses. Shown are the representative blots of 3 independent experiments.

[4] = A53T-αSyn iPSC neurons, n = 6–7

For `CC(C)[C@H](NC(=O)CNC(=O)CNC(=O)CCCCCNC(=O)[C@H](CCCNC(=N)N)NC(=O)[C@H](CCCNC(=N)N)NC(=O)[C@H](CCCNC(=N)N)NC(=O)[C@H](CCC(N)=O)NC(=O)[C@H](CCCNC(=N)N)NC(=O)[C@H](CCCNC(=N)N)NC(=O)[C@H](CCCCN)NC(=O)[C@H](CCCCN)NC(=O)[C@H](CCCNC(=N)N)NC(=O)CNC(=O)[C@@H](N)Cc1ccc(O)cc1)C(=O)N[C@H](C(=O)N[C@H](C(=O)N[C@@H](C)C(=O)O)[C@@H](C)O)C(C)C` [CS2, TAT-C6-GGVVTA], the “ClpP protein level, HEK293T” value (ClpP (HEK293T cells)) was “significantly restored ClpP protein levels”, the “extracellular αSyn monomer” value (αSyn monomer; 10 µM, two days, ELISA, n = 4) was “decreased levels” and the “intracellular αSyn monomer” value (αSyn monomer) was “decreased levels”. The mitochondrial membrane potential (SH-SY5Y cells [1]) was “rescued upon CS2 treatment”, the “ATP content, αSyn-expressing cells” value (SH-SY5Y cells [2]; SH-SY5Y expressing WT- or A53T-αSyn, n = 6) was “rescued upon CS2 treatment” and the “ATP production, healthy cells” value (SH-SY5Y cells [2]; healthy SH-SY5Y, n = 4) was “did not affect cell viability nor ATP production”. For the same compound, the “insoluble αSyn accumulation, iPSC neurons” value ([3]; 3 independent experiments) was “reduced the expression of pS129-αSyn and the accumulation of insoluble αSyn”, the “pS129-αSyn expression, iPSC DA neurons” value ([3]; n = 5–7) was “reduced the expression of pS129-αSyn” and the “ClpP protein level in TH+ DA neurons” value ([3]; n = 6) was “significantly restored ClpP protein levels”. The PSD95 density [3, 4] was “restored the density of both PSD95 and Synapsin1” and the Synapsin1 density [3, 4] was “restored the density of both PSD95 and Synapsin1”.
